Where “and” joins values, the source holds several entries; their conditions need not be identical. Equal values may be shown once. Entries after “also recorded” stand apart in the source; their conditions may differ.
What was measured:
[1] = test system: PC12 cells; experiment: MTT assay, PC12 survival under dexamethasone (glucocorticoid) stress; type: cell-based, rat
Description: (§1) Cell injuries under condition of serum deprivation-induced stress and oxidative stress were measured by MTT assay. For MTT assay, Cells were seeded into N2 medium in an amount of 7.5×10^3 cells, and then a neurotoxin or a nerve growth factor was added thereto to differentiate the cells and then 0.1 volume of 4 mg/ml MTT was further added. The mixture was stored at 37° C. for 3-4 hours. After 100 μl of solubilization buffer was added to the mixture and then stored for 24 hours, O.D. values were measured by ELISA assay.
Glucocorticoids are hormones secreted from the adrenal glands, and involve in a variety of metabolic processes including glycometabolism. In particular, stress causes release of glucocorticoids to reduce cell divisions of neuronal stem cells in the brain and induce apoptosis of nerve cells. Therefore, PC12 cells were treated with dexamethasone, a glucocorticoid derivative, to examine the effect of berberine against apoptosis of nerve cells. 3 hours after treatment with berberine, dexamethasone (1) was added to a culture solution and incubated for 2 days to induce neuroregeneration (see, Table 5 and FIG. 5b).

[2] = test system: SH-SY5Y cells; experiment: MTT assay, SH-SY5Y survival under oxidative stress (H2O2); type: cell-based, human
Description: SH-SY5Y cells were treated with H2O2 for 30 minutes to induce cell injuries. 3 hours before the cells were treated with H2O2, berberine (0.25˜3.5 μg) was added to cell culture to examine its cell protection effect (see, Table 4 and FIG. 4b).

[3] = test system: nerve cells in CA1, dentate gyrus and entorhinal cortex; experiment: Animal model for dementia (ibotenic acid into entorhinal cortex), calbindin-positive neuron count; type: in vivo, rat
Description: After white rat brain was fixed with a stereotaxic frame, 1.5 μl (1 mg/ml) of ibotenic acid and PBS, or 1.5 μl (1 mg/ml) of berberine was injected into the entorhinal cortex region using a microinjector to prepare a model for dementia. […]
Brain was fixed with 4% paraformaldehyde and cryosected to a thickness of 40 μm, and then the cryosected brain was permeablized with 0.5% Triton X-100 for 20 minutes and blocked using 15% blocking serum for 2 hours. After reacting with anti-calbindin antibody at a temperature 4° C. for 16 hours and then further reacting with FITC-labeled secondary antibody or rhodamin (TRITC)-labeled secondary antibody for 1 hour, the cells were fixed on a slide before examining under a confocal microscope.
As an animal model for dementia, ibotenic acid was microinjected into the entorhinal cortex of adult rat brain using a stereotaxic frame.
First, an adult rat was anesthetized, and its head was fixed with a stereotaxic frame. Subsequently, 1.5 μl (1 mg/ml) of ibotenic acid was injected into the entorhinal cortex region to prepare a model for dementia, and then berberine was injected into the same site. 2 weeks after operation, brain tissue sections were counter-stained with hematocylin to examine apoptosis and protective effect. After fluorescence-staining the cells, regions used for cell count were represented as squares (FIG. 14). In addition, the cells were fluorescence-stained with calbindin antibody, a nerve-specific marker, to examine nerve cell survival (see, Tables 8 to 10, FIGS. 11 and 12).

[4] = test system: SH-SY5Y cells; experiment: MTT assay, SH-SY5Y survival under serum deprivation-induced stress; type: cell-based, human; details: N2 + retinoic acid 5 μM
Description: as §1
In order to prepare a stroke-like cell model using SH-SY5Y, the cells were cultured under serum deprivation. […] Retinoic acid, which induces the differentiation of SH-SY5Y as a cell differentiation factor, was used as a positive control. 3 hours before depriving serum, the cells were treated with berberine (0.25˜3 μg). The cells were cultured in chemically defined media (N2) for 2 days to induce nerve regeneration (see, Table 2 and FIG. 4a).

[5] = test system: SH-SY5Y cells; experiment: Neurite regeneration in SH-SY5Y cells; type: cell-based, human; details: retinoic acid
Description: (§2) Thereafter, the culture was treated with berberine and further cultured for 2 days. The cultured cells were immunostained with nerve cell-specific labeled molecule, and then the number of cells having neurites longer than cell bodies was counted under a confocal microscope. A positive control was treated with bFGF under the same condition as described above to induce the differentiation into nerve cells. In addition, the neuroregenerative effect was examined after berberine together with bFGF was treated. The differentiation degree was measured by double-staining neurites with nerve cell-specific labeled molecule (anti-neurofilament antibody) and FITC-labeled secondary antibody (green), followed by staining cell nuclei with propidium iodide (red). In order to examine the effect of berberine on neurite regeneration, SH-SY5Y cells were used as differentiated nerve cell lines. Retinoic acid inducing neurite growth was used as a positive control.

[6] = test system: nerve cells highly sensitive to NMDA receptors; details: MK-801 to young rat (7-8-days old); cited from earlier work
[7] = test system: PC12 cells; experiment: MTT assay, PC12 survival under serum deprivation-induced stress; type: cell-based, rat; details: RPMI + NGF 100 ng/ml
Description: as §1
NGF, increasing cell survival and inducing cell differentiation, was used as a positive control. After the cells were treated with berberine (0.25˜3 μg/ml), the cells were cultured for 2 days to induce nerve regeneration (see, Table 3 and FIG. 5a).

[8] = test system: HiB5 cells
Description: Since HiB5 cells derived from white rat embryonic hippocampus were prepared by retroviral infection of temperature sensitive SV40 large T antigen, they divided at […], but the cell division stopped at 39° C. (body temperature of rat). […] Cell culture medium was prepared by adding a mixture of 10% FBS (fetal bovine serum), penicillin/streptomycin, glutamine and sodium pyruvate (0.11 g/L) to DMEM. On differentiating at 39° C., another cell culture medium was prepared by adding pyruvate to a serum-free medium (N2, containing DMEM/F12, insulin, transferrin, Putreseine and BSA; Botten Stein & Sato., 1979). PC12 cells and SH-SY5Y cells were cultured in DMEM supplemented with 10% FBS. In order to differentiate the cells, NGF or retinoic acid was added to a serum-free medium.
as §1
HiB5 cell line used in this experiment was prepared by infecting primary cultured cells of temperature sensitive SV40 large T antigen in rat embryonic hippocampus (embryonic day 16) using retroviral vectors. The HiB5 cell line was divided at the permissive temperature (32° C.), but the cell division stopped at the non-permissive temperature (body temperature of rat: 39° C.). A small number of GABAegic neurons differentiated in the rat embryonic hippocampus (embryonic day 16), and glutamatergic pyramidal cell precursors still divided, some of which penetrated into dentate gyrus regions through dentate migration pathways in embryonic day 18 to differentiate into glutamatergic granule cells (Altman J., Bayer. S. A. (1990a) Prolonged sojourn of developing pyramidal cells in the intermediate zone of the hippocampus and their settling in the stratum pyramidale. J Comp Neurol. 301, 343-64.; Altman J., Das G. D. (1965) Post-natal origin of microneurones in the rat brain, Nature. 28, 953-956.). When cells stop their cell-division and start to differentiate in vivo, apoptosis occurs.
In order to evaluate the protective effect of berberine against apoptosis and the effect of increasing cell survival, HiB5 cells were cultured under conditions for initiation of differentiation. At this time, the culture was treated with berberine at various concentrations (50 ng/ml˜6 μg/ml). The protective effect of berberine against apoptosis was measured by MTT assay. A positive control group was treated with bFGF to block apoptosis, increase cell survival and induce the differentiation into nerve cells.
Since HiB5 neuronal stem cells undergo cell death during the differentiation, the cells were considered as a negative control group. The percentage of O.D. values is determined for the groups treated with bFGF and berberine, respectively.

[9] = test system: HiB5 cells; experiment: Induction of differentiation of HiB5 cells into nerve cells (neurite count, confocal); type: cell-based, white rat; details: HiB5, bFGF positive control
Description: as §2, with “(red).” for “(red). In order to examine the effect of berberine on neurite regeneration, SH-SY5Y cells were used as differentiated nerve cell lines. Retinoic acid inducing neurite growth was used as a positive control.”

[10] = Ibotenic Acid alone (reference)
[11] = N2 + dexamethasone + NGF 100 ng/ml

Molecule: C[C@@H]1C[C@H]2[C@@H]3CCC4=CC(=O)C=C[C@]4(C)[C@@]3(F)[C@@H](O)C[C@]2(C)[C@@]1(O)C(=O)CO [Dexamethasone, dexamethasone, reference compound]
- O.D. ([1]; N2 + dexamethasone 1 μM alone): 0.193
- Average (O.D. relative to dexamethasone alone) ([1]; N2 + dexamethasone 1 μM alone (reference = 100%; N2 = 118%)): 100%

Molecule: OO [H2O2, reference compound]
- O.D. ([2]; N2, H2O2 150 μM alone): 0.056
- Average (O.D. relative to H2O2 alone) ([2]; N2, H2O2 150 μM alone (reference = 100%; N2 without H2O2 = 429%)): 100%

Molecule: N[C@H](C(=O)O)c1cc(=O)[nH]o1 [Ibotenic Acid, ibotenic acid, reference compound]
- cell number relative to Ibotenic Acid average = 100, CA (individual animals #1-#3) ([3]; Ibotenic Acid alone): 116 and 112 and 73
- cell number relative to Ibotenic Acid average = 100, DG (individual animals #1-#3) ([3]; Ibotenic Acid alone): 123 and 105 and 72
- cell number relative to Ibotenic Acid average = 100, ENT (individual animals #1-#3) ([3]; Ibotenic Acid alone): 100 and 105 and 94
- cell number, CA (individual animals #1-#3) ([3]; Ibotenic Acid alone): 57 and 55 and 36
- cell number, CA, AVR ([3]; Ibotenic Acid alone): 49.3
- cell number, DG (individual animals #1-#3) ([3]; Ibotenic Acid alone): 227 and 193 and 133
- cell number, DG, AVR ([3]; Ibotenic Acid alone): 184.3
- cell number, ENT (individual animals #1-#3) ([3]; Ibotenic Acid alone): 73 and 77 and 68
- cell number, ENT, AVR ([3]; Ibotenic Acid alone): 72.7
- cell number (%) relative to Ibotenic Acid, CA, average [3, 10]: 100%
- cell number (%) relative to Ibotenic Acid, DG, average [3, 10]: 100%
- cell number (%) relative to Ibotenic Acid, ENT, average [3, 10]: 100%
- reduction of calbindin-positive neurons in the hippocampus and entorhinal cortex ([3]; ibotenic acid alone, 2 weeks after microinjection): 30˜40%
- calbindin-positive neurons, recovery ([3]; ibotenic acid alone, 4 weeks after microinjection): recovered somewhat; also recorded: some of them were recovered

Molecule: CC1=C(/C=C/C(C)=C/C=C/C(C)=C/C(=O)O)C(C)(C)CCC1 [Retinoic acid, reference compound]
- O.D. ([4]; 2 days): 0.871.
- Average (O.D. relative to N2) ([4]; N2 = 100%): 130%
- Average (O.D. relative to H2O2 alone) ([2]; N2, H2O2 + retinoic acid 5 μM): 321%
- O.D. ([2]; N2, H2O2 + retinoic acid 5 μM): 0.179
- Number of differentiated cells ([5]; N2 = 22.30): 18.91
- total average cell numbers ([5]; N2 = 42.33): 24.75
- Average (%) of differentiated cells ([5]; N2 = 44.47): 81.59%

Molecule: MK-801
- number of dead nerve cells, of total nerve cells [6]: 12-26%

Molecule: NGF: nerve growth factor, positive control in PC12 cells
- O.D. ([7]; 2 days): 0.349
- Average (O.D. relative to RPMI) ([7]; RPMI = 100%): 208%
- Average (O.D. relative to dexamethasone alone) [1, 11]: 147%
- O.D. [1, 11]: 0.283
- cell survival rate increase ([1]; dexamethasone stress, 2 days): about 1.5 times

Molecule: bFGF: basic fibroblast growth factor, positive control increasing HiB5 survival and differentiation
- cell survival rate / protective effect against apoptosis, increase over control ([8]; HiB5 under differentiation conditions, MTT): 1.5 times and 1.6 times
- O.D. % ([8]; bFGF 20 ng, control = 100): 150%
- differentiation into nerve cells (morphology) [9]: induced the differentiation into nerve cells; also recorded: cell bodies got smaller and neurites got longer

Source: patent US20040097534A1, “Composition for the protection and regeneration of nerve cells containing berberine derivatives” (EUGENBIO INC., priority 2001, published 2004)
